Experimental data: ChEMBL document CHEMBL5036382 (ACS Med Chem Lett, 2022)
Activity calls are given as the source filed them. No cut-off for these calls is given here.

How the values were obtained:
[1] = biological target: T1, DNA-directed RNA polymerase I subunit RPA1 (Homo sapiens, UniProt O95602); assay: Inhibition of RNA polymerase 1 in human A-375 assessed as RPA194 degradation measured after 3 hrs by Hoechst 33342 staining based assay
[2] = biological target: Voltage-gated inwardly rectifying potassium channel KCNH2 (Homo sapiens, UniProt Q12809); assay: Inhibition on hERG expressed in HEK293 cells by Qpatch method
[3] = biological target: T2, Cytochrome P450 1A2 (Homo sapiens, UniProt P05177); assay: Inhibition of recombinant human hepatic CYP1A2 expressed in baculovirus insect cell expression system in presence of CEC substrate measured by fluorescence plate reader assay
T2 sequence (P05177 whole entry): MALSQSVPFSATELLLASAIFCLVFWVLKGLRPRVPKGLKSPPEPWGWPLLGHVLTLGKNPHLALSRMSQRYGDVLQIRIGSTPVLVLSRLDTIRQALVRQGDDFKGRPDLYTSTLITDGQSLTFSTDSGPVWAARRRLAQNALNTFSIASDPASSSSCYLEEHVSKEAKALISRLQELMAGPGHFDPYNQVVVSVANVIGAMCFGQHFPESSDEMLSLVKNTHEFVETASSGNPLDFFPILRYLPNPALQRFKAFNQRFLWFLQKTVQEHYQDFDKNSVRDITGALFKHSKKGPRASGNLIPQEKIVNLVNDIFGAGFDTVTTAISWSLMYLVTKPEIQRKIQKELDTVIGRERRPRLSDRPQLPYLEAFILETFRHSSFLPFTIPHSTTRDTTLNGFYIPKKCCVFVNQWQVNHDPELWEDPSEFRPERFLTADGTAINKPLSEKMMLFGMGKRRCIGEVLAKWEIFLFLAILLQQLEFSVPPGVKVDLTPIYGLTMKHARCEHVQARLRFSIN

[4] = Half life in CD1 mouse at 1 mg/kg, iv; type: ADME, organism-based; conditions: in vivo
[5] = Cmax in CD1 mouse at 30 mg/kg, ip; conditions: in vivo
[6] = biological target: T1, DNA-directed RNA polymerase I subunit RPA1; assay: Inhibition of RPA1 in human A-375 cells assessed as downregulation of RPA1 gene at 1 uM incubated for 6 hrs measured by qPCR analysis; type: cell-based
[7] = Metabolic stability in mouse liver microsomes at 1 uM assessed as intrinsic clearance measured after 45 mins by LC-MS/MS analysis; type: ADME, Microsome; conditions: read-out: CLH
[8] = AUC (0 to infinity) in CD1 mouse at 30 mg/kg, ip; conditions: in vivo
[9] = Half life in CD1 mouse at 30 mg/kg, ip; conditions: in vivo
[10] = test system: A-375; assay: Inhibition of RPA3 in human A-375 cells assessed as downregulation of RPA3 gene at 1 uM incubated for 6 hrs measured by qPCR analysis; type: cell-based
[11] = Cmax in CD1 mouse at 30 mg/kg, po; type: ADME, organism-based; set-up: route oral, dose 30 mg/kg; conditions: in vivo
[12] = Clearance in CD1 mouse at 1 mg/kg, iv; type: ADME, organism-based; conditions: in vivo
[13] = AUC (0 to infinity) in CD1 mouse at 1 mg/kg, iv; type: ADME, organism-based; set-up: time infinity, route intravenous, dose 1 mg/kg; conditions: in vivo
[14] = test system: A-375; assay: Inhibition of RPA2 in human A-375 cells assessed as downregulation of RPA2 gene at 1 uM incubated for 6 hrs measured by qPCR analysis; type: cell-based
[15] = test system: A-375; assay: Cytotoxicity against human A-375 cells assessed as reduction in cell viability incubated for 72 hrs by cell titer glo luminescent assay; conditions: A-375, 72 h
[16] = AUC (0 to infinity) in CD1 mouse at 30 mg/kg, po; type: ADME, organism-based; set-up: route oral, time infinity, dose 30 mg/kg; conditions: in vivo
[17] = Volume of distribution at steady state in CD1 mouse at 1 mg/kg, iv; type: ADME, organism-based; conditions: in vivo, read-out: Vdss
[18] = Oral bioavailability in CD1 mouse at 30 mg/kg; type: ADME, organism-based; conditions: in vivo

T1 sequence (O95602 whole entry): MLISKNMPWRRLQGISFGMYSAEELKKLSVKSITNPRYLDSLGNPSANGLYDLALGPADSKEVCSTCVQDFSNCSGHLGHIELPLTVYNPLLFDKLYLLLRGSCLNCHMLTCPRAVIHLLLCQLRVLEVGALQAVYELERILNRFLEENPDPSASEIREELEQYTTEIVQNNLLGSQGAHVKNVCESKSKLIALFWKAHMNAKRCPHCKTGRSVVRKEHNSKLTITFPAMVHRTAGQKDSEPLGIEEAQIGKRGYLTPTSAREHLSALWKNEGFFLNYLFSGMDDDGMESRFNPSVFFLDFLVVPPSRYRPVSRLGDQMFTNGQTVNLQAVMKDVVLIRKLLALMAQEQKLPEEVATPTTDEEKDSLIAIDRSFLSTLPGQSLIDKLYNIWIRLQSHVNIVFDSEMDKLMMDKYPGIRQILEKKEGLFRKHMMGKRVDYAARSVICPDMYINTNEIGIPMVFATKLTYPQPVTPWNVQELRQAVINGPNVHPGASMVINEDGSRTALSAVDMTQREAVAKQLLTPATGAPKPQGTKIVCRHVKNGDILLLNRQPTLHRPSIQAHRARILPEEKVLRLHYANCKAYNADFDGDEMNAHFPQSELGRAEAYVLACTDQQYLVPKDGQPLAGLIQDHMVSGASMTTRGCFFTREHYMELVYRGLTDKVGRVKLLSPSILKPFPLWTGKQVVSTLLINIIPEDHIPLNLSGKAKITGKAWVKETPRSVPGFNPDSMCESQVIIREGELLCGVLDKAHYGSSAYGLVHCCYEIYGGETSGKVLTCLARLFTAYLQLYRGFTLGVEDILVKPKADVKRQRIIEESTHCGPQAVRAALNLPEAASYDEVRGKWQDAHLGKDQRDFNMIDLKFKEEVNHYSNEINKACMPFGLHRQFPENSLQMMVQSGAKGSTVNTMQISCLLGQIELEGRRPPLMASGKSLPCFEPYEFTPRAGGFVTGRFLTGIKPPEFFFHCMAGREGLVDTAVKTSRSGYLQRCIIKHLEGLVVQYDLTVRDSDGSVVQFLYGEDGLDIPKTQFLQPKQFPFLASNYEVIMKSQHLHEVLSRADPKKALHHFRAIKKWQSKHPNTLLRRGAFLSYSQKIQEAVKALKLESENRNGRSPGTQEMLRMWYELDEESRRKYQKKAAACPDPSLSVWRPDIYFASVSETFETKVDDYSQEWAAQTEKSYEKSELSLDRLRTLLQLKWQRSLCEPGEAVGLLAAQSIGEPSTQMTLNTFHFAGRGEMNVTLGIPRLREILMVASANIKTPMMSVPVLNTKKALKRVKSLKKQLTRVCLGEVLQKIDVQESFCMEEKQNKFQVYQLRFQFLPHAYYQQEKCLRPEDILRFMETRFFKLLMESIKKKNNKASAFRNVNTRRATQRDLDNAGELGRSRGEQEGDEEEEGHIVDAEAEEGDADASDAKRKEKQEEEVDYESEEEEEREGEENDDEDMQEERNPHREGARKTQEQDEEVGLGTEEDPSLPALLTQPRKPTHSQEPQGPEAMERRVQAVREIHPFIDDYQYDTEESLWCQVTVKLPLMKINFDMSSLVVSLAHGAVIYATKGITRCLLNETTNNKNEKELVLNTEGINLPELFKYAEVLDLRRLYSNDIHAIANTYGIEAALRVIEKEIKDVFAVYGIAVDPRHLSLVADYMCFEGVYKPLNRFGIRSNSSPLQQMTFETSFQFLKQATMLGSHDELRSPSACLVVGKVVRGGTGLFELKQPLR
Chain of Voltage-gated inwardly rectifying potassium channel KCNH2 (Q12809 whole entry): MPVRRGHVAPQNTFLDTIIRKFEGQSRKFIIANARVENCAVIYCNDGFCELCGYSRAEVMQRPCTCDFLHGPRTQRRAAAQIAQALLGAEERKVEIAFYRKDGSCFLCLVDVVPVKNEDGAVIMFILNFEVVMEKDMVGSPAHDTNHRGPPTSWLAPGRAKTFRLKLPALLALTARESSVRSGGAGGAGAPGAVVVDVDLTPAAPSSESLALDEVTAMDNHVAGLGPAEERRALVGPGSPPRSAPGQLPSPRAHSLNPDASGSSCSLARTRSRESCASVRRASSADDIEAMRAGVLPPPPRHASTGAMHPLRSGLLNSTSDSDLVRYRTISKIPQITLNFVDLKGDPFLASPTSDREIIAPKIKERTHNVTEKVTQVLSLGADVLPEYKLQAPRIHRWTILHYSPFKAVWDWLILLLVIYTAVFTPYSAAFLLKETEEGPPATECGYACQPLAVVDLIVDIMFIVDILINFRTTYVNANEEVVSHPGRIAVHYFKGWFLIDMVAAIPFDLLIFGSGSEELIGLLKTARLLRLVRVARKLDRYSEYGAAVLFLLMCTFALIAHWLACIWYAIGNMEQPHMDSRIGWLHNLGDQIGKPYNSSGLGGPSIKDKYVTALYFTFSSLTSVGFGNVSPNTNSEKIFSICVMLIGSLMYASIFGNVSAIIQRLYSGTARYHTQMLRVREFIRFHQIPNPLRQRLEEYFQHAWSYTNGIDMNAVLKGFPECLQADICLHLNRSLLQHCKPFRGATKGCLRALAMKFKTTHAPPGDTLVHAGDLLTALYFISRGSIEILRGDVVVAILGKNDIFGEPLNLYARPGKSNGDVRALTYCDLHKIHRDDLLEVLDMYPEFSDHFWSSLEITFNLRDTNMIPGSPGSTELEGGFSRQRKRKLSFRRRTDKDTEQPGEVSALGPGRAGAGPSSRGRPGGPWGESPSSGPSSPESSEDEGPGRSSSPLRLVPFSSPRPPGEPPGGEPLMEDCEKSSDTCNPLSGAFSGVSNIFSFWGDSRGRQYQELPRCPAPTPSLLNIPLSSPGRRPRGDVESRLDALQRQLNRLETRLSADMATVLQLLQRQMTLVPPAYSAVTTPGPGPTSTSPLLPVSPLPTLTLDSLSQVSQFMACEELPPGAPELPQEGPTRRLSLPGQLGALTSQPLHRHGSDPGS

SMILES	IC50 [1] [µM]	also measured
O=C(NCC1CCCCN1)c1cccn2c(=O)c3cc4ccccc4cc3nc12 (stereo not drawn)	0.59	–
O=C(NCC1CCCN1)c1cccn2c(=O)c3cc4ccccc4cc3nc12 (stereo not drawn)	0.78	–
O=C(NCCN1CCSCC1)c1cccn2c(=O)c3cc4ccccc4cc3nc12	10	–
O=C(NCCN1CCC(F)(F)C1)c1cccn2c(=O)c3cc4ccccc4cc3nc12	> 10	–
NCCNC(=O)c1cccn2c(=O)c3ccc4ccccc4c3nc12	> 10	IC50 [2]: > 10 µM; IC50 [3]: > 10 µM
CN1CCN(CCNC(=O)c2cccn3c(=O)c4ccc5ccccc5c4nc23)CC1	> 10	IC50 [2]: > 10 µM; IC50 [3]: > 10 µM
O=C(NCCN1CC[C@@H](F)C1)c1cccn2c(=O)c3ccc4ccccc4c3nc12	1.9	IC50 [2]: 8.26 µM; IC50 [3]: 2.1 µM
Cc1cc2nc3c(C(=O)NCCN4CCCC4)cccn3c(=O)c2cc1C	1.16	–
O=C(NCCN1CCCC1)c1cccn2c(=O)c3ccc4ccccc4c3nc12	0.21	half-life [4]: 1.22 h; Cmax [5]: 83 ng/mL; inhibition [6]: Active; microsomal CLint at 1 µM [7]: 132 µL/min/mg; AUC(0-inf) [8]: 518 ng·h/mL; half-life [9]: 7.52 h; inhibition [10]: inactive; Cmax [11]: 13.9 ng/mL; clearance [12]: 508 mL/min/kg; AUC(0-inf) [13]: 30.8 ng·h/mL; inhibition [14]: inactive; IC50 [15]: 0.038 µM; AUC(0-inf) [16]: 122 ng·h/mL; Vd [17]: 33.2 L/kg; bioavailability [18]: 13%
O=C(NCCN1CC[C@H](F)C1)c1cccn2c(=O)c3ccc4ccccc4c3nc12	> 10	IC50 [2]: > 10 µM; IC50 [3]: 4.5 µM
CC(NC(=O)c1cccn2c(=O)c3cc4ccccc4cc3nc12)C1CCCCN1 (stereo not drawn)	0.92	–
CN1CCOCC1CNC(=O)c1cccn2c(=O)c3cc4ccccc4cc3nc12 (stereo not drawn)	1	–
CC(C)N1CCCCC1CNC(=O)c1cccn2c(=O)c3cc4ccccc4cc3nc12 (stereo not drawn)	10	–
O=C(NCCN1CCCCC1)c1cccn2c(=O)c3ccc4ccccc4c3nc12	0.64	IC50 [2]: 3.72 µM; IC50 [3]: > 10 µM
CN1CCCC1CNC(=O)c1cccn2c(=O)c3cc4ccccc4cc3nc12 (stereo not drawn)	3.94	–
N#CC1CCN(CCNC(=O)c2cccn3c(=O)c4cc5ccccc5cc4nc23)CC1	0.74	–
O=C(NCC1CCCC(CO)N1)c1cccn2c(=O)c3cc4ccccc4cc3nc12 (stereo not drawn)	0.65	–
O=C(NCCN1CCCC(F)C1)c1cccn2c(=O)c3cc4ccccc4cc3nc12 (stereo not drawn)	> 10	–
O=C(NCCN1CCCC1)c1cccn2c(=O)c3c(ccc4cnncc43)nc12	4.2	–
O=C(NCCN1CCCC1)c1cccn2c(=O)c3c(ccc4ccccc43)nc12	> 10	–
COc1cc2nc3c(C(=O)NCCN4CCCC4)cccn3c(=O)c2cc1OC	6.86	–
O=C(NCCN1CCC(F)C1)c1cccn2c(=O)c3cc4ccccc4cc3nc12 (stereo not drawn)	5.75	–

SMILES	IC50 [1] [µM]	also measured
CNCCNC(=O)c1cccn2c(=O)c3ccc4ccccc4c3nc12	0.47	IC50 [2]: > 10 µM; IC50 [3]: 0.3 µM
O=C(NCCN1CCCC1)c1cccn2c(=O)c3cc4c(cc3nc12)OCO4	0.54	–
O=C(NCCN1CCCC1)c1cccn2c1nc1cc3ccccc3cc12	1.7	–
O=C(NCCN1CCCC1)c1cccn2c(=O)c3cc4c(cc3nc12)CCCC4	1.39	–
O=C(NCCN1CCS(=O)(=O)CC1)c1cccn2c(=O)c3cc4ccccc4cc3nc12	> 10	–
O=C(NCCCN1CCCC1)c1cccn2c(=O)c3ccc4ccccc4c3nc12	> 10	–
CN1CCC(NC(=O)c2cccn3c(=O)c4ccc5ccccc5c4nc23)CC1	> 10	IC50 [2]: 7.39 µM; IC50 [3]: > 10 µM
CCN1CCCCC1CNC(=O)c1cccn2c(=O)c3cc4ccccc4cc3nc12 (stereo not drawn)	0.99	–
O=C(NCCN1CCCC1)c1cccn2c1nc1cc3ccccc3nc12	6	–
CCN(CC)CCNC(=O)c1cccn2c(=O)c3ccc4ccccc4c3nc12	0.6	–
O=C(NCCN1CCC(O)(O)CC1)c1cccn2c(=O)c3cc4ccccc4cc3nc12	0.6	–
O=C(NCCN1CCCC(F)(F)C1)c1cccn2c(=O)c3cc4ccccc4cc3nc12	> 10	–
O=C(NCCN1CCC(F)CC1)c1cccn2c(=O)c3cc4ccccc4cc3nc12	0.78	–
CN(C)CCNC(=O)c1cccn2c(=O)c3cc4ccccc4cc3nc12	–	inhibition [10]: inactive; inhibition [14]: inactive
CN(C)CCCNC(=O)c1cccn2c(=O)c3ccc4ccccc4c3nc12	> 10	–
O=C(NCCN1CCCC1)c1cccn2c(=O)c3cc4c(cc3nc12)OC(F)(F)O4	0.42	–
O=C(NCCN1CCC(F)(F)CC1)c1cccn2c(=O)c3cc4ccccc4cc3nc12	> 10	–
CN(C)CCNC(=O)c1cccn2c(=O)c3ccc4ccccc4c3nc12	0.16	–
O=C(NCCN1CCCC1)c1c(O)ccn2c(=O)c3cc4ccccc4cc3nc12	5.5	–
O=C(NCCO)c1cccn2c(=O)c3ccc4ccccc4c3nc12	9.5	IC50 [2]: > 10 µM; IC50 [3]: 0.1 µM
O=C(NCCN1CCCC1)c1cccn2c(=O)c3cc4c(cc3nc12)OCCO4	1.04	–
O=C(NC1CNC1)c1cccn2c(=O)c3ccc4ccccc4c3nc12	> 10	IC50 [2]: 3.97 µM; IC50 [3]: 0.2 µM
